Data on one substance can be found in patent US20080182835A1 (priority 2006, published 2008).

Read-outs that look alike come from different tables or passages of the source.

The test system of one data set is mRNA luciferase template. In words: Rabbit Reticulocyte Lysate Translation System, luciferase mRNA translation (Western blot). The data set is classed as biochemical. As to conditions: same test, CoCyclen data not provided. As for the experimental part:
CoHex is capable of preventing translation of a messenger RNA (mRNA) in vitro. The ability Co(NH3)6 to inhibit translation of an mRNA luciferase template was assessed using the Rabbit Reticulocyte Lysate Translation System (Promega) according to the manufacturer's instructions. In the example discussed below, Co(NH3)6 in various concentrations was incubated with the […] for 10 minutes before the addition of the mRNA template to the translation lysate. Translated luciferase protein was run on a 10% SDSPAGE gel for 45 min at 130 V and detected by Western blot on a PVDF membrane. Proteins were detected using a streptavidinalkaline phosphatase conjugate and Western Blue substrate according to the instructions in the Transcend Non-Radioactive Translation Detection System (Promega). In FIG. 2, Lane 1 represents the incubation of 0.01 mM Co(NH3)6. Lane 2 represents the incubation of 0.02 mM Co(NH3)6. Lane 3 represents the incubation of 0.05 mM Co(NH3)6. Lane 4 represents the incubation of 0.1 mM Co(NH3)6. Lane 5 represents the incubation of 0.2 mM Co(NH3)6. Lane 6 is a positive control in which no Co(NH3)6 is added. Lane 7 is a negative control in which no translation occurs. The lanes marked M are molecular weight marker lanes. […]

The test system of another data set is Adenovirus. In words: Flow cytometry propidium iodide viability of Adenovirus-infected A549 cells. Format: cell-based. The conditions noted are these: 6 hour pretreatment, 48 hours post infection, increasing concentration up to 0.0621 mM. An excerpt: Another example of antiviral activity is an in vitro model of a double stranded DNA (dsDNA) virus infection, Adenovirus. […] The same flow cytometry procedure discussed above for Sindbis viral infection in BHK cells was used for Adenovirus viral infection in A549 cells.

Data set [1] relates to baby hamster kidney (BHK) cells. In words: Cytotoxicity, CellTiter96 Proliferation Assay on BHK cells. The data set is classed as cell-based. As for the experimental part:
The cytotoxicity of Co(NH3)6 (Structure IV) was assessed by monitoring its ability to inhibit proliferation of baby hamster kidney (BHK) cells. BHK cells were cultured as exponentially growing subconfluent monolayers in complete growth medium, particularly Dulbecco's Modified Eagle's Medium (DMEM) supplemented with 1% (v/v) antibiotic/antimycotic agent and 10% (v/v) heat inactivated fetal bovine serum (FBS). Cells were grown in either T25 or T75 flasks (Acton, Mass.) and incubated at 37° C. under 5% CO2 atmosphere. A subculture was performed every 3-4 days.
The in vitro toxicity of Co(NH3)6 was determined using the CellTiter96® Proliferation Assay (Promega, Madison, Wis.). This quantitative calorimetric assay is based upon the enzymatic conversion of a tetrazolium salt substrate into a blue formazan product with a maximum absorbance at 570 nm. […] At the assay endpoint, the absorbance at 570 nm is directly proportional to the number of viable cells. To assess compound toxicity, BHK cells were seeded into the wells of a 96-well tissue culture microtiter plate (2×10^4 cells/well) and cultured overnight at 37° C. in a humidified atmosphere containing 5% CO2. The next day, Co(NH3)6 was diluted into tissue culture media (at final concentrations ranging from 0 to 5 mM) and incubated with the cells for 72 hrs. Triplicate wells were included for each concentration. To control for any contaminating absorbance due to the compounds, control wells containing no cells were included at each compound concentration (“no cell” wells). At the end of the 72 hour culture period, 15 μL of tetrazolium substrate was added to each well and the plate was returned to the incubator for 4 hours to allow viable cells to convert the substrate into the formazan product. At the end of the 4 hour incubation period, 100 μL of solubilization solution was added to each well and the plate was subsequently incubated overnight to completely solubilize the contents of each well to a homogeneous color. The absorbance within each of the “no cell” wells was subtracted from the absorbance measured in the corresponding wells containing cells for each concentration of Co(NH3)6.

The subject of data set [2] is Sindbis virus. In words: Log(PFU) per percent cell survival, plaque counts combined with CellTiter96 survival of infected BHK cells. As to conditions: with increase in concentration, FIG. 4. The data set is classed as cell-based. From the text:
Because live cell counts will decrease with increasing CoHex complex due to cytotoxicity of the cells and virus replication, but increase due to the anti-viral protection of CoHex, the plaque counts may have decreased due to the fact that there were less live cells available to count. […] The data of FIG. 3C was obtained using the CellTiter96 cell proliferation assay described above for the CoHex cytotoxicity data (i.e., with respect to FIG. 1) in which the cells were further infected with 5 plaque forming units per cell of Sindbis virus in DMEM containing 2% FBS in the absence or presence of various concentrations of Co(NH3)6, then assayed periodically.
Therefore, the fraction cell survival data of FIG. 3C was combined with the log pfu data of FIG. 3A to generate a ratio, Log(PFU) per percent cell survival, which although not a physical measure, is a general model of viruses in surviving cells.

Data set [3] relates to Sindbis virus. In words: Sindbis virus plaque formation assay in BHK cells. The data set is classed as cell-based, Sindbis virus (633-EGFP strain). As to conditions: 48 hours.
Data set [4] in a line: Ligand exchange with free histidine by UV-VIS and NMR. The data set is classed as physicochemical. As to conditions: ratio 100:1 histidine to Co(NH3)6, results not shown.
In data set [5] the test system is Sindbis virus.
Protocol: In these assays, Sindbis virus replication was assessed by monitoring viral structural protein synthesis using a recombinant Sindbis virus construct. In this construct, the gene encoding enhanced green fluorescent protein (EGFP) was placed under the control of the same promoter sequence that drives transcription of viral structural proteins. Thus, upon Sindbis virus replication, virally infected cells produce intracellular EGFP at levels that are proportional to the level of viral structural proteins.
BHK cells (1×10^5) were plated into the wells of 24-well plates in 1 mL of complete media and incubated with increasing concentrations of Co(NH3)6 for 6 hours prior to infection with Sindbis virus at a multiplicity of infection (moi) of 5 pfu per cell. The infection was allowed to proceed for 48 hours. In preparation for analysis by flow cytometry, cells from each well were removed and pelleted, washed with PBS, and resuspended in 500 μL of PBS. One half of each sample was analyzed directly to determine the percentage of EGFP-positive cells (percent infected cells). The other half of each sample was incubated with 5 μM propidium iodide for 1 minute prior to the determination of the percentage of non-viable cells. In all cases, analysis was performed on 1×10^4 cells.
BHK cells were pretreated with Co(NH3)6 for 6 hours prior to infection with Sindbis virus. After 48 hours post infection, both the percentage of Sindbis-infected cells (as evidenced by EGFP fluorescence) and the percentage of viable cells (as determined by the exclusion of propidium iodide (PI)) were determined as a function of Co(NH3)6 concentrations.

On to Co(NH3)6, for which, in the data set on mRNA luciferase template, the “inhibition of protein translation relative to conventional CoCyclen structure” value is given as “about 10 times”. For the same substance, the “survival rate of Adenovirus-infected A549 cells” value in the data set with Adenovirus was “increase in survival rate”. Further, the cell viability result in data set [1] (72 hrs, at 2.5 mM) was “about 80%”. In data set [1] (72 hrs, from FIG. 1, read-out: 50% cytotoxicity concentration (CC50)), the CC50 was approximately 3200 µM. In data set [1] (FIG. 1), the “toxicity compared with cis-Platin” value is “much less toxic”. Moreover, the “toxicity (inhibition of cellular proliferation)” value was “no significant toxicity” in data set [1] (concentrations below 0.3 mM) and “only mildly toxic” in data set [1] (concentrations below 2.5 mM). The “concentration of maximum toxicity” value in data set [1] (highest concentration tested) stood at 5000 µM. Further, the “Log(PFU) per percent cell survival” value in the data set with Sindbis virus [2] was “significant decrease in viral infection”. In addition, the IC50 is approximately 100 µM with Sindbis virus [3] (BHK cells, read-out: IC50, inhibition of Sindbis virus plaque formation) and 130 ± 40 µM in the data set with Sindbis virus [5] (read-out: IC50, inhibition of EGFP expression, 6 hours pretreatment, 48 hours post infection, moi 5). In the data set on Sindbis virus [3] (at about 2.5 mM), the “maximal inhibition of virus replication, decrease in pfu over control” value is listed as “about 2.5 log”. Also, the “exchange of ammonia groups with free histidine” value in data set [4] is on record as “does not appear to have labile ligands”. Moreover, the “selectivity ratio CC50/IC50” value in the data set on Sindbis virus [5] (Sindbis virus over BHK cells) is recorded as “about 25”. Moreover, the “percentage of EGFP-positive (Sindbis-infected) cells” value in the data set with Sindbis virus [5] (at 0.15 mM) is recorded as “distinct decrease”. Further, in the data set on Sindbis virus [5] (pretreatment, co-infection or early post-treatment), the “effect of timing of administration on inhibition of EGFP expression” value is given as “equally effective”.
